Experimental findings from ChEMBL document CHEMBL1770141, “Quinolino-benzo-[5, 6]-dihydroisoquindolium compounds derived from berberine: a new class of highly selective ligands for G-quadruplex DNA in c-myc oncogene” (Eur J Med Chem, 2011) are described below.

Assay [1] deals with Nucleic Acid. The experiment in a line: Thermal stability of c-MYC FPu18T G-quadruplex DNA assessed as stabilization temperature at 2 uM by FRET assay. It counts as nucleic-acid assay.
Assay [2] concerns NCI-H460. As to the kind of experiment: Cytotoxicity against human NCI-H460 cells after 48 hrs by MTT assay. It is filed as functional, cell-based. The conditions noted are these: NCI-H460, 48 h.
The subject of assay [3] is Nucleic Acid. The experiment in a line: Thermal stability of F10T duplex DNA assessed as stabilization temperature at 2 uM by FRET assay. It is filed as nucleic-acid assay.
For assay [4], the system named is ECV-304. As to the kind of experiment: Cytotoxicity against human ECV304 cells after 48 hrs by MTT assay. It is filed as functional, cell-based. The following applies: ECV-304, 48 h. A general note: Tetrazolium assays rely on reduction of a dye to a coloured formazan, in cell work by metabolically active cells.
The subject of assay [5] is Nucleic Acid. As to the kind of experiment: Inhibition of c-myc G-quadruplex formation in oligonucleotide Pu27 after 3 mins by PCR stop assay. It is filed as nucleic-acid assay.
Assay [6] concerns HL-60. As to the kind of experiment: Cytotoxicity against human HL60 cells after 48 hrs by MTT assay. It is filed as functional, cell-based. The conditions noted are these: HL-60, 48 h.
For assay [7], the system named is Nucleic Acid. As to the kind of experiment: Thermal stability of c-MYC FPu18T G-quadruplex DNA assessed as stabilization temperature at 2 uM by FRET assay in presence of 10 uM duplex DNA competitor. It counts as nucleic-acid assay.
The nature of assay [8]: Cytotoxicity against human GLC82 cells after 48 hrs by MTT assay. It counts as functional, cell-based. The conditions noted are these: GLC82, 48 h.
In assay [9] the test system is Nucleic Acid. As to the kind of experiment: Binding affinity to oligonucleotide Pu18 DNA assessed as induction of Pu18G-quadruplex DNA at 262 nm bandwidth by circula dichroism spectroscopy. It counts as nucleic-acid assay.
The subject of assay [10] is ECV-304. The experiment in a line: Inhibition of c-myc gene transcription in human ECV304 cells assessed as c-myc mRNA level normalized to GAPDH mRNA level by RT-PCR. It is filed as functional, cell-based.
For assay [11], the system named is HL-60. As to the kind of experiment: Inhibition of c-myc gene transcription in human HL60 cells assessed as c-myc mRNA level normalized to GAPDH mRNA level by RT-PCR. It is filed as functional, cell-based.
Assay [12] concerns Nucleic Acid. As to the kind of experiment: Binding affinity to oligonucleotide Pu18 DNA assessed as induction of Pu18G-quadruplex DNA positive shift to at 262 nm bandwidth by circula dichroism spectroscopy. It counts as nucleic-acid assay.
Assay [13] deals with HL-60. As to the kind of experiment: Induction of growth phase arrest in human HL60 cells expressing c-myc gene at 0.5 uM after 16 days. It is filed as functional, cell-based.
In assay [14] the test system is Nucleic Acid. The experiment in a line: Binding affinity to oligonucleotide Pu18 DNA assessed as induction of Pu18G-quadruplex DNA negative peak at 240 nm bandwidth by circula dichroism spectroscopy. It is filed as nucleic-acid assay.
Assay [15] deals with ECV-304. The experiment in a line: Induction of growth phase arrest in human ECV304 cells at 0.5 uM after 16 days. It counts as functional, cell-based.

Active and inactive are the calls of the source. The calls are words filed in the database; no cut-off is given here. Bounds are passed on as bounds.

As to `COc1ccc2cc3[n+](c4c2c1N(CCCN1CCOCC1)C=C4)CCc1cc2c(cc1-3)OCO2`, the ΔTm in assay [1] was 23 °C; in assay [3], 0 °C; in [7] it was 23 °C. Besides, the IC50 is 36 µM in [2]; greater than 100 µM in assay [4]; 4.3 µM in [5]; 12.6 µM in assay [6]; 30 µM in [8].
With `COc1ccc2cc3[n+](c4c2c1N(CCCCCCN)C=C4)CCc1cc2c(cc1-3)OCO2`, the thermal shift (ΔTm) is 29 °C in assay [1], 0.5 °C in assay [3] and 27.5 °C in assay [7]. Also, the outcome in [9], in assay [12], in [13] and in assay [14] was Active. Also, the IC50 in [2] was 13 µM; in assay [4], greater than 100 µM; in [5], 1.9 µM; in [6] it was 2 µM; in assay [8] it was 10 µM. In addition, in assay [10], the inhibition result is “inactive”. Also, in assay [11], the inhibition entry was “Active”. In [15], the result was inactive.
On to `COc1ccc2cc3[n+](cc2c1NCCCN(C)C)CCc1cc2c(cc1-3)OCO2`, for which the ΔTm in assay [1] came to 20 °C; in [3], 1 °C. Besides, the half-inhibitory concentration (IC50) in [2] was 64 µM; in [4], greater than 100 µM; in assay [5] it was 3.3 µM; in assay [6], 27.5 µM; in assay [8], 29 µM.
Regarding `COc1ccc2cc3[n+](cc2c1OC)CCc1cc2c(cc1-3)OCO2`, the ΔTm came out at 1 °C in assay [1] and 2 °C in [3].
Turning to `COc1ccc2cc3[n+](cc2c1NCCN(C)C)CCc1cc2c(cc1-3)OCO2`, the ΔTm in assay [1] was 19 °C; in assay [3] it was 0 °C. The IC50 was 56 µM in assay [2]; greater than 100 µM in [4]; 3.9 µM in assay [5]; 38 µM in [6]; 36 µM in assay [8].
On to `COc1ccc2cc3[n+](c4c2c1N(CCCN(C)C)C=C4)CCc1cc2c(cc1-3)OCO2`, for which the ΔTm in [1] amounted to 25 °C; in assay [3] it was 0 °C; in assay [7] it was 24 °C. The IC50 was 9 µM in [2]; greater than 100 µM in assay [4]; 3 µM in [5]; 8 µM in assay [6]; 5 µM in assay [8].
With `COc1ccc2cc3[n+](c4c2c1N(CCN(C)C)C=C4)CCc1cc2c(cc1-3)OCO2`, the ΔTm was 20 °C in assay [1], 0 °C in assay [3] and 19.5 °C in [7]. Moreover, the IC50 was 60 µM in assay [2]; greater than 100 µM in assay [4]; 3.4 µM in assay [5]; 12 µM in [6]; 31 µM in assay [8].
Turning to `COc1ccc2cc3[n+](cc2c1NCCCN1CCOCC1)CCc1cc2c(cc1-3)OCO2`, the shift in melting temperature (ΔTm) in assay [1] amounted to 17 °C; in assay [3], 0 °C. Moreover, the 50% inhibitory concentration (IC50) was greater than 100 µM in assay [2]; greater than 100 µM in assay [4]; 4.8 µM in [5]; 20.6 µM in assay [6]; 85 µM in assay [8].
Regarding `COc1ccc2cc3[n+](cc2c1NCCCCCCN)CCc1cc2c(cc1-3)OCO2`, the ΔTm is 29 °C in assay [1] and 2 °C in assay [3]. The IC50 in [2] is 9 µM; in assay [4], greater than 100 µM; in assay [5], 2 µM; in assay [6] it was 5.5 µM; in assay [8], 4 µM. Moreover, the inhibition entry in [10] and in [11] was “Active” in each case. The outcome in assay [13] and in assay [15] was Active.

A word on the ΔTm: it is the shift of the melting midpoint relative to a reference. As usually defined, the IC50 is the concentration that gives 50% inhibition. Read a high IC50 as a need for much substance.
